What was measured:
[1] = Inhibition of HIV1 JRFL gp120-mediated CHO cells fusion to HeLaP4 cells by HIV LTR-beta galactosidase reporter assay; format: cell-based; conditions: Human immunodeficiency virus 1, JRFL
[2] = Cytotoxicity against human HeLaP4 cells; format: cell-based
in vitro [3] = conditions: human, liver microsomes
[4] = Lipophilicity, log D at pH 7.4; format: physicochemical; conditions: buffer
in vitro [5] = conditions: rat, liver microsomes
[6] = Bioavailability in rat at 1 mg/kg; format: ADME, organism-based; conditions: in vivo
[7] = Plasma protein binding in rat at 1 mg/kg, iv and 1 mg/kg, po; format: ADME, organism-based; conditions: read-out: PPB (converted)
[8] = Clearance in rat at 1 mg/kg, iv and 1 mg/kg, po; format: ADME, organism-based; conditions: in vivo
[9] = test system: Human immunodeficiency virus 1; test: Antiviral activity against Human immunodeficiency virus 1 NL4-3 assessed as inhibition of viral entry in HeLaP4 cells after 5 days by beta galactosidase reporter assay; format: functional, organism-based; conditions: Human immunodeficiency virus 1, NL4-3, HeLaP4, 120 h
[10] = Volume of distribution in rat at 1 mg/kg, iv and 1 mg/kg, po; format: ADME, organism-based; conditions: in vivo
[11] = Half life in rat at 1 mg/kg, iv and 1 mg/kg, po; format: ADME, organism-based; conditions: in vivo
[12] = test system: Human immunodeficiency virus 1; test: Antiviral activity against Human immunodeficiency virus 1 BR92004 infected human PBMC cells by Phenosense assay; format: functional, organism-based; conditions: Human immunodeficiency virus 1, BR92004, PBMC
[13] = test system: Human immunodeficiency virus 1; test: Antiviral activity against Human immunodeficiency virus 1 BaL infected human PBMC cells by Phenosense assay; format: functional, organism-based
[14] = test system: Human immunodeficiency virus 1; test: Antiviral activity against Human immunodeficiency virus 1 3B infected human PBMC cells by Phenosense assay; format: functional, organism-based
[15] = test system: Human immunodeficiency virus 1; test: Antiviral activity against Human immunodeficiency virus 1 BR92023 infected human PBMC cells by Phenosense assay; format: functional, organism-based; conditions: Human immunodeficiency virus 1, BR92023, PBMC

SMILES	IC50 [1] [nM]	microsomal CLint (in vitro [3]) [µL/min/mg]	logD [4]	CC50 [2] [nM]	also measured
CC(Oc1cccc(Cl)c1)C(=O)N1CCN(C(=O)c2ccccc2)C[C@H]1C (stereo not given in full)	1000			> 10000	
CNC(=O)c1ccc(O[C@@H](C)C(=O)N2CCN(C(=O)c3ccccc3)C[C@H]2C)c(OC)n1 (mixture of isomers)	257			> 10000	
CC(Oc1ccc(C(=O)N(C)C)cc1)C(=O)N1CCN(C(=O)c2ccccc2)C[C@H]1C (mixture of isomers)	> 25000	< 8	0.9	> 10000	
CC(Oc1cccc(-c2ccn[nH]2)c1)C(=O)N1CCN(C(=O)c2ccccc2)C[C@H]1C (mixture of isomers)	35	61	2.3	> 10000	
Cc1ccc(OC(C)C(=O)N2CCN(C(=O)c3ccccc3)C[C@H]2C)cc1C (mixture of isomers)	100	158		> 10000	
CC(Oc1cccc(C(=O)N(C)C)c1)C(=O)N1CCN(C(=O)c2ccccc2)C[C@H]1C (mixture of isomers)	> 25000	12	1	> 10000	
CNC(=O)c1ccccc1OC(C)C(=O)N1CCN(C(=O)c2ccccc2)C[C@H]1C (mixture of isomers)	> 25000	23	1.5	> 10000	
CC(Oc1ccccc1C(=O)N(C)C)C(=O)N1CCN(C(=O)c2ccccc2)C[C@H]1C (mixture of isomers)	> 25000	31	1.1	> 10000	
Cc1c(OC(C)C(=O)N2CCN(C(=O)c3ccccc3)C[C@H]2C)cccc1-c1ncno1 (mixture of isomers)	75	141	2.1	> 10000	

Now from value to molecule, other results behind:

IC50 [1] [nM]	microsomal CLint (in vitro [3]) [µL/min/mg]	logD [4]	SMILES	CC50 [2] [nM]	also measured
2000	< 8	1.4	CNC(=O)c1ccc(OC(C)C(=O)N2CCN(C(=O)c3ccccc3)C[C@H]2C)c(F)c1 (mixture of isomers)	> 10000	
12000	< 8	1.2	CNC(=O)c1cccc(OC(C)C(=O)N2CCN(C(=O)c3ccccc3)C[C@H]2C)c1C (mixture of isomers)	> 10000	
2700			CNC(=O)c1ccc(OC(C)C(=O)N2CCN(C(=O)c3ccccc3)C[C@H]2C)cc1OC (mixture of isomers)	> 10000	
17	< 8	1	CNC(=O)c1ccc(O[C@@H](C)C(=O)N2CCN(C(=O)c3ccccc3)C[C@H]2C)c(OC)c1	> 10000	half-life (in vitro [5]): > 2 h; bioavailability [6]: 48%; fraction unbound [7]: 0.81; clearance [8]: 75 mL/min/kg; IC50 [9]: 3 nM; Vd [10]: 4.3 L/kg; half-life [11]: 0.7 h
> 10000	< 8	1	CNC(=O)c1cccc(OC(C)C(=O)N2CCN(C(=O)c3ccccc3)C[C@H]2C)c1OC (mixture of isomers)	> 10000	
2600	< 8	1.1	CNC(=O)c1ccc(OC(C)C(=O)N2CCN(C(=O)c3ccccc3)C[C@H]2C)cc1 (mixture of isomers)	> 10000	
11	< 8	0.7	CNC(=O)c1cc(OC)c(O[C@@H](C)C(=O)N2CCN(C(=O)c3ccccc3)C[C@H]2C)cn1 (mixture of isomers)	> 10000	half-life (in vitro [5]): > 2 h; bioavailability [6]: 65%; fraction unbound [7]: 0.69; IC50 [12]: 6 nM; IC50 [13]: 25 nM; IC50 [9]: 2 nM; IC50 [14]: 10 nM; Vd [10]: 1.5 L/kg; IC50 [15]: 0.6 nM; half-life [11]: 1 h
> 2000			CCOc1cc(C(=O)NC)ccc1OC(C)C(=O)N1CCN(C(=O)c2ccccc2)C[C@H]1C (mixture of isomers)	> 10000	
1400	< 8	1.3	CNC(=O)c1cccc(OC(C)C(=O)N2CCN(C(=O)c3ccccc3)C[C@H]2C)c1 (mixture of isomers)	> 10000	
2900	< 8	1.8	CNC(=O)c1ccc(OC(C)C(=O)N2CCN(C(=O)c3ccccc3)C[C@H]2C)c(C)c1 (mixture of isomers)	> 10000	
1000	< 8	1.1	CNC(=O)c1ccc(OC(C)C(=O)N2CCN(C(=O)c3ccccc3)C[C@H]2C)cc1C (mixture of isomers)	> 10000	
> 2000			CNC(=O)c1ccc(O[C@H](C)C(=O)N2CCN(C(=O)c3ccccc3)C[C@H]2C)c(OC)c1	> 10000	
